Data on 25 compounds can be found in publication PMC9870012 (Journal of Enzyme Inhibition and Medicinal Chemistry, 2023).

One assay deals with T1, human meprin α (Homo sapiens, UniProt Q16819).
T1 sequence (Q16819 66-746): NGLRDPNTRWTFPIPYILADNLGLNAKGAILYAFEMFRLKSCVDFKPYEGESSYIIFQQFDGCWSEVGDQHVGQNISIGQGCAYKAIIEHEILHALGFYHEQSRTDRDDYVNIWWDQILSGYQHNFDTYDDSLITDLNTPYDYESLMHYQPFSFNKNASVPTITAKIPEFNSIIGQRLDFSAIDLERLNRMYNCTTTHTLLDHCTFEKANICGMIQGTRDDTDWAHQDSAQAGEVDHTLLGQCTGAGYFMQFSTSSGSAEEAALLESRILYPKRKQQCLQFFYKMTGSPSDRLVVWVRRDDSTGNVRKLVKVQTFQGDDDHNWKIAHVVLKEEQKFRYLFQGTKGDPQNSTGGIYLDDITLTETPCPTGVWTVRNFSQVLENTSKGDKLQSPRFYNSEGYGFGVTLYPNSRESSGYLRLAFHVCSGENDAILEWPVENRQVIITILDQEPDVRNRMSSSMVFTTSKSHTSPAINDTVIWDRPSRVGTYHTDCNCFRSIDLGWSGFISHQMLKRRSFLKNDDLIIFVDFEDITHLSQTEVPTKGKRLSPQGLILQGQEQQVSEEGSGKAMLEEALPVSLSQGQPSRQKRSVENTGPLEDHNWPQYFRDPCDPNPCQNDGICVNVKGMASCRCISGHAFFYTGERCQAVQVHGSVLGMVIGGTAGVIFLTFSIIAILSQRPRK
It counts as biochemical. Particulars: for Ki: Ki(app) Meprin α, geometric mean of three independent experiments with standard deviation factor; for SF: selectivity factor (Ki(app) meprin β/Ki(app) meprin α): meprin α over meprin β; for reduction of the meprin α selectivity by factor: compared to 16a.

The next assay has as its target T2, human meprin β (Homo sapiens, UniProt Q16820).
T2 sequence (Q16820 62-701): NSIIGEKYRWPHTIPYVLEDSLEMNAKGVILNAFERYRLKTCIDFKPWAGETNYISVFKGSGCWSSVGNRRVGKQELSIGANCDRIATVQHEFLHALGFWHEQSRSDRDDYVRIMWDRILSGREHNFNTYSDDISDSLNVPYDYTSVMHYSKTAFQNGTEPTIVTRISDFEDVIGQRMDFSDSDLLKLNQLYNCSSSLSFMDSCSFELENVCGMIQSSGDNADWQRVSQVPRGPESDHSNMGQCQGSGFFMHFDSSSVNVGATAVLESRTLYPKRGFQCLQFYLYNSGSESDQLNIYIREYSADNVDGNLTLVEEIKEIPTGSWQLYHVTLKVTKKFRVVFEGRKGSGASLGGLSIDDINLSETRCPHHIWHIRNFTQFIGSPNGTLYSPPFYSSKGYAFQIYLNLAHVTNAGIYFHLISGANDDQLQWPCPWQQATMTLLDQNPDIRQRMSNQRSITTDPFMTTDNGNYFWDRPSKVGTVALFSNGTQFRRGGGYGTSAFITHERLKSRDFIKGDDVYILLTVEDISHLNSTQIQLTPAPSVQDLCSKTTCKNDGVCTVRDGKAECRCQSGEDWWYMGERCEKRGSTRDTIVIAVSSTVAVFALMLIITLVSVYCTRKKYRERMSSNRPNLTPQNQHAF
It counts as biochemical. Conditions: for Ki: Ki(app) Meprin β, geometric mean of three independent experiments with standard deviation factor.

The structures appear in SMILES notation.

As to `O=C(Cc1c(C2CCCC2)n[nH]c1-c1ccccc1)NO` [14c, 2-(3-Cyclopentyl-5-phenyl-1H-pyrazol-4-yl)ethanehydroxamic acid], at human meprin α, the Ki worked out at 5.6 nM and the “SF: selectivity factor (Ki(app) meprin β/Ki(app) meprin α)” value (shortened to “SF: selectivity factor”) is 53.

On to `O=C(Cc1c(-c2ccccc2)nn(Cc2ccccc2)c1-c1ccccc1)NO` [21e, 2-(1-Benzyl-3,5-diphenyl-pyrazol-4-yl)ethanehydroxamic acid], for which the Ki at human meprin β is 291 nM; on human meprin α, 1 nM. At human meprin α, the “SF: selectivity factor” value came out at 291.

In the case of `O=C(Cc1c(-c2ccc3c(c2)OCO3)n[nH]c1-c1cccc(C(=O)O)c1)NO` [16e, 3-[3-(1,3-Benzodioxol-5-yl)-4-[2-(hydroxyamino)-2-oxo-ethyl]-1H-pyrazol-5-yl)benzoic acid], at human meprin α, the Ki was 3.1 nM, the “reduction of the meprin α selectivity by factor” value was 10–20 and the “SF: selectivity factor” value is 15.

Consider `O=C(Cc1c(-c2cccc(-c3nnn[nH]3)c2)n[nH]c1-c1ccccc1)NO` [14p, 2-[5-Phenyl-3-[3-(1H-tetrazol-5-yl)phenyl]-1H-pyrazol-4-yl]ethanehydroxamic acid], for which the Ki on human meprin β came out at 6.7 nM. Also, the “improvement in activity against meprin β by factor” value at human meprin β (compared to 7a) stood at 16. For the same compound, at human meprin α, the Ki was determined as 0.7 nM and the “SF: selectivity factor” value is on record as 10.

`O=C(Cc1c(-c2cccc(C(=O)O)c2)n[nH]c1-c1ccccc1)NO` [14j, 3-[4-[2-(Hydroxyamino)-2-oxo-ethyl]-5-phenyl-1H-pyrazol-3-yl]benzoic acid]: on human meprin α, the Ki was determined as 7.5 nM and the “SF: selectivity factor” value is listed as 6.

The compound `O=C(Cc1c(-c2ccc(C(=O)O)cc2)n[nH]c1-c1cccc(C(=O)O)c1)NO` [16g, 3-[3-(4-Carboxyphenyl)-4-[2-(hydroxyamino)-2-oxo-ethyl]-1H-pyrazol-5-yl]benzoic acid] yielded a Ki at human meprin β of 32.5 nM. Moreover, at human meprin α, the Ki turned out to be 20.3 nM and the “SF: selectivity factor” value amounted to 2.

Consider `O=C(Cc1c(C2CCCC(C(=O)O)C2)n[nH]c1-c1ccccc1)NO` (centres unmarked) [14r, 3-[4-[2-(Hydroxyamino)-2-oxo-ethyl]-5-phenyl-1H-pyrazol-3-yl]cyclohexanecarboxylic acid], for which, on human meprin α, the Ki was determined as 1.4 nM and the “SF: selectivity factor” value is reported as 39.

In the case of `O=C(Cc1c(-c2ccc(Cl)c(O)c2F)n[nH]c1-c1ccc(Cl)c(O)c1F)NO` [16d, 2-[3,5-Bis(4-chloro-2-fluoro-3-hydroxyphenyl)-1H-pyrazol-4-yl]ethanehydroxamic acid], on human meprin α, the Ki stood at 4.2 nM and the “SF: selectivity factor” value is on record as 3.

In the case of `O=C(Cc1c(-c2ccc(C(=O)O)cc2)n[nH]c1-c1ccccc1)NO` [14k, 4-[4-[2-(Hydroxyamino)-2-oxo-ethyl]-5-phenyl-1H-pyrazol-3-yl]benzoic acid], on human meprin α, the Ki worked out at 17.2 nM and the “SF: selectivity factor” value came out at 7.

With `O=C(Cc1c(-c2c[nH]nc2C(F)(F)F)n[nH]c1-c1ccccc1)NO` [14o, 2-[5-Phenyl-3-[3-(trifluoromethyl)-1H-pyrazol-4-yl]-1H-pyrazol-4-yl]ethanehydroxamic acid], on human meprin α, the Ki came out at 1.6 nM and the “SF: selectivity factor” value amounted to 55.

`O=C(Cc1c(-c2cccc(C(=O)O)c2)[nH]nc1[C@H]1CC[C@H](C(=O)O)CC1)NO` [16l, 3-[3-(Trans-4-Carboxycyclohexyl)-4-[2-(hydroxyamino)-2-oxo-ethyl]-1H-pyrazol-5-yl]benzoic acid]: the “SF: selectivity factor” value at human meprin α is on record as 1.

Consider `O=C(Cc1c(-c2ccc(C(=O)O)cc2)n[nH]c1-c1ccc(Cl)c(O)c1F)NO` [16h, 4-[5-(4-Chloro-2-fluoro-3-hydroxy-phenyl)-4-[2-(hydroxyamino)-2-oxo-ethyl]-1H-pyrazol-3-yl]benzoic acid], for which, at human meprin β, the Ki stood at 11.2 nM. At human meprin α, the Ki turned out to be 9.6 nM and the “SF: selectivity factor” value is on record as 1.

For `O=C(Cc1c(-c2ccccc2)nn(-c2cccc(C(=O)O)c2)c1-c1ccccc1)NO` [21c, 3-[4-[2-(Hydroxyamino)-2-oxo-ethyl]-3,5-diphenyl-pyrazol-1-yl]benzoic acid], at human meprin β, the Ki is 212 nM. The “increased inhibition of meprin β by factor” value at human meprin β (in comparison to the N-phenyl pyrazole 21b) is listed as 3. Besides, at human meprin α, the Ki is 4 nM and the “SF: selectivity factor” value is recorded as 53.

On to `O=C(Cc1c(-c2ccc(Cl)c(O)c2F)n[nH]c1-c1ccccc1)NO` [14l, 2-[3-(4-Chloro-2-fluoro-3-hydroxyphenyl)-5-phenyl-1H-pyrazol-4-yl]ethanehydroxamic acid], for which, on human meprin α, the Ki was 2.2 nM and the “SF: selectivity factor” value was found to be 31.

On to `O=C(Cc1c(-c2ccc3c(c2)OCO3)n[nH]c1-c1ccc(C(=O)O)cc1)NO` [16f, 4-[3-(1,3-Benzodioxol-5-yl)-4-[2-(hydroxyamino)-2-oxo-ethyl]-1H-pyrazol-5-yl)benzoic acid], for which, on human meprin α, the Ki turned out to be 10.5 nM, the “reduction of the meprin α selectivity by factor” value is listed as 10–20 and the “SF: selectivity factor” value stood at 9.

For the compound `O=C(Cc1c(-c2ccccc2)[nH]nc1[C@H]1CC[C@@H](C(=O)O)CC1)NO` [14t, Cis-4-[4-[2-(hydroxyamino)-2-oxo-ethyl]-5-phenyl-1H-pyrazol-3-yl]cyclohexanecarboxylic acid], the “SF: selectivity factor” value on human meprin α worked out at 4.

In the case of `O=C(Cc1c(-c2ccccc2)[nH]nc1[C@H]1CC[C@H](C(=O)O)CC1)NO` [14s, Trans-4-[4-[2-(hydroxyamino)-2-oxo-ethyl]-5-phenyl-1H-pyrazol-3-yl]cyclohexanecarboxylic acid], on human meprin α, the Ki was determined as 11.6 nM and the “SF: selectivity factor” value was determined as 8.

Regarding `Cc1n[nH]c(-c2ccccc2)c1CC(=O)NO` [14a, 2-(3-Methyl-5-phenyl-1H-pyrazol-4-yl)ethanehydroxamic acid], the “SF: selectivity factor” value on human meprin α is 7.

With `O=C(Cc1c(-c2cccc(C(=O)O)c2)n[nH]c1-c1ccc(Cl)c(O)c1F)NO` [16i, 3-[5-(4-Chloro-2-fluoro-3-hydroxy-phenyl)-4-[2-(hydroxyamino)-2-oxo-ethyl]-1H-pyrazol-3-yl]benzoic acid], at human meprin α, the Ki came out at 5.1 nM and the “SF: selectivity factor” value stood at 1.

For the compound `O=C(Cc1c(Cc2ccccc2)n[nH]c1-c1ccccc1)NO` [14b, 2-(3-Benzyl-5-phenyl-1H-pyrazol-4-yl)ethanehydroxamic acid], on human meprin α, the “SF: selectivity factor” value was 25.

Regarding `N#Cc1ccc(-c2n[nH]c(-c3ccccc3)c2CC(=O)NO)cc1` [14i, 2-[3-(4-Cyanophenyl)-5-phenyl-1H-pyrazol-4-yl]ethanehydroxamic acid], at human meprin α, the Ki worked out at 13.6 nM and the “SF: selectivity factor” value worked out at 71.

`O=C(Cc1c(-c2cc(O)no2)n[nH]c1-c1ccccc1)NO` [14n, 2-[3-(3-Hydroxyisoxazol-5-yl)-5-phenyl-1H-pyrazol-4-yl]ethanehydroxamic acid]: the “SF: selectivity factor” value on human meprin α was 1.

As to `COc1ccc(-c2n[nH]c(-c3ccccc3)c2CC(=O)NO)cc1` [14e, 2-[3-(4-Methoxyphenyl)-5-phenyl-1H-pyrazol-4-yl]ethanehydroxamic acid], on human meprin α, the Ki stood at 1.3 nM and the “SF: selectivity factor” value turned out to be 48.

Take `O=C(Cc1c(-c2ccc(C(=O)O)cc2)n[nH]c1-c1ccc(C(=O)O)cc1)NO` [16c, 4-[3-(4-Carboxyphenyl)-4-[2-(hydroxyamino)-2-oxo-ethyl]-1H-pyrazol-5-yl]benzoic acid]: the “SF: selectivity factor” value on human meprin α was 2.

As to `N#Cc1cccc(-c2n[nH]c(-c3ccccc3)c2CC(=O)NO)c1` [14h, 2-[3-(3-Cyanophenyl)-5-phenyl-1H-pyrazol-4-yl]ethanehydroxamic acid], at human meprin α, the Ki was determined as 4.8 nM and the “SF: selectivity factor” value is 67.
